Measurements from patent US4650803A, “Prodrugs of rapamycin” (University of Kansas, priority 1985, dated 1987).
“Also recorded” adds a separate entry of the source. Counter-ions that a name gives are not always drawn.

Columns and labels:
[1] = Products of decomposition/hydrolysis in plasma and homogenate studies (HPLC, TLC)
Method: (§1) The liver homogenate studies were done using livers freshly obtained from male albino Sprague-Dawley rats. A 20% liver homogenate was prepared in Sorensen's buffer at pH 7.4. Chemical stability studies of rapamycin and the two prodrugs of Examples 2 and 3 were carried out at concentrations of 20, 50 and 50 μg/ml respectively, at 37.5° C.

[2] = background statement; cited from earlier work
[3] = Rat liver homogenate stability study (37.5° C.); type: in vitro ADME, male albino Sprague-Dawley rats; conditions: 20% rat liver homogenate, pH 7.4, 50 μg/ml, read-out: t1/2 (liver homogenate stability) (converted)
Method: as §1

[4] = Rat plasma stability study (37.5° C.); type: in vitro ADME, Sprague-Dawley male albino rats; conditions: for half-life: rat, plasma, read-out: t1/2 (plasma stability) (converted)
Method: (§2) The plasma studies were done at three prodrug concentrations: 200, 100 and 50 μg/ml of prodrug. The experimental procedure was as follows: The compound to be tested was taken from a stock aqueous solution of 5 mg/ml and added to the plasma to give the desired prodrug concentration. […] Before centrifugation 200 μl of methanol was added to further precipitate the plasma proteins. The results are expressed in half-lives in hours.
(§3) The chemical and plasma studies were followed by HPLC using a RP C-18 column (150 mm) and a precolumn (50 mm). […] Chart speed was 1 inch/10 minutes.

[5] = Chemical stability study in buffers (hydrolysis half-life, HPLC); type: physicochemical; conditions: buffer, read-out: t1/2 (chemical stability) (converted)
Method: In the examples, chemical stability studies for rapamycin and the prodrugs were done at 20 μg/ml with an ionic strength of 0.5. Stabilities at pH 3.3 (0.05M acetate buffer) and pH 7.4 (0.05M phosphate buffer) were studied at 25° and 37.5° C. No antioxidants were added and the buffers were not deoxygenated.
as §3

[6] = Human plasma stability study (37.5° C.); type: in vitro ADME; conditions: for half-life: human, plasma
Method: as §2, §3

[7] = Stability to light and to long stirring; type: physicochemical
Solubility in water = type: physicochemical
[8] = human plasma, 50 μg/ml, 37.5° C., read-out: t1/2 (plasma stability) (converted)

Structure (SMILES) | half-life [3] | half-life ([4]; 50 μg/ml) | half-life ([5]; pH 3.3, pH 3.3, 25° C.) | half-life ([5]; pH 7.4, pH 7.4, 25° C.) | half-life [6, 8] | stability on prolonged exposure to light [7] | solubility (Solubility in water) | half-life ([4]; 100 μg/ml) | half-life ([4]; 200 μg/ml) | also measured
CO[C@H]1C[C@@H]2CC[C@@H](C)[C@@](O)(O2)C(=O)C(=O)N2CCCC[C@H]2C(=O)O[C@H]([C@H](C)C[C@@H]2CC[C@@H](O)[C@H](OC)C2)CC(=O)[C@H](C)/C=C(\C)[C@@H](O)[C@@H](OC)C(=O)[C@H](C)C[C@H](C)/C=C/C=C/C=C/1C [Rapamycin, rapamycin] | 5.5 h | 2.83 h | 35.8 h | 47.6 h | 3 h |  |  |  |  | further degradation (TLC) ([1]; plasma and homogenate studies, TLC): further degraded to other decomposition products; Solubility in water [2]: 20 micrograms per milliliter; half-life ([5]; pH 3.3, pH 3.3, 37.5° C.): 9.9 h; half-life ([5]; pH 7.4, pH 7.4, 37.5° C.): 10.2 h
CO[C@H]1C[C@@H]2CC[C@@H](C)[C@@](O)(O2)C(=O)C(=O)N2CCCC[C@H]2C(=O)O[C@H]([C@H](C)C[C@@H]2CC[C@@H](O)[C@H](OC)C2)CC(=O)[C@H](C)/C=C(\C)[C@@H](OC(=O)CCCN2CCCC2)[C@@H](OC)C(=O)[C@H](C)C[C@H](C)/C=C/C=C/C=C/1C [Example 4, Mono-(28)-4'-(N-pyrrolidino)-butyrate Hydrochloride Salt Ester of Rapamycin] |  |  |  |  |  | appears to discolor upon prolonged exposure to light | ~15 mg/mL |  |  | 
CCN(CC)CCC(=O)O[C@@H]1/C(C)=C/[C@@H](C)C(=O)C[C@@H]([C@H](C)C[C@@H]2CC[C@@H](O)[C@H](OC)C2)OC(=O)[C@@H]2CCCCN2C(=O)C(=O)[C@]2(O)O[C@@H](CC[C@H]2C)C[C@H](OC)/C(C)=C/C=C/C=C/[C@@H](C)C[C@@H](C)C(=O)[C@@H]1OC [Example 3, Mono-(28)-3-(N,N-Diethylamino)propionate Hydrochloride Salt Ester of Rapamycin] | 3.7 h |  |  |  |  | unstable to prolonged exposure to light; also recorded: appears to discolor upon prolonged exposure to light | > 50 mg/mL | 58 h | 60 h | observed product of hydrolysis / decomposition [1]: rapamycin being the only observed product of hydrolysis; half life of the prodrug compared with the others [6]: the shortest; time within which half of the prodrug decomposed into products including mainly rapamycin [6]: two and one-half; half-life ([6]; t1/2 (plasma stability)): 2.5 h
CO[C@H]1C[C@@H]2CC[C@@H](C)[C@@](O)(O2)C(=O)C(=O)N2CCCC[C@H]2C(=O)O[C@H]([C@H](C)C[C@@H]2CC[C@@H](O)[C@H](OC)C2)CC(=O)[C@H](C)/C=C(\C)[C@@H](OC(=O)CN(C)C)[C@@H](OC)C(=O)[C@H](C)C[C@H](C)/C=C/C=C/C=C/1C [Example 2, Methanesulfonic Acid Salt of Mono-(28)-N,N Dimethylglycinate Ester of Rapamycin] | 4.5 h | 1.8 h | 73 h | 45 h | 5 h | slow discoloration of the material; also recorded: appears to discolor upon prolonged exposure to light | > 50 mg/mL | 1.8 h | 2.5 h | stability to long stirring times ([7]; salt form): unstable to long stirring times; t1/2 (plasma stability) ([4]; 50 μg/ml): 1.75 h; t1/2 (plasma stability) ([6]; human plasma, 50 μg/ml, 37.5° C.): 5.0 h; half-life ([6]; human plasma, 100 μg/ml, 37.5° C., read-out: t1/2 (plasma stability) (converted)): 4.8 h; half-life ([6]; human plasma, 200 μg/ml, 37.5° C., read-out: t1/2 (plasma stability) (converted)): 5.6 h
